Laboratory results reported in US8729120B2, “Adjunctive therapy for depression” (SK Biopharmaceuticals Co., Ltd., priority 2004, dated 2014).

Assays:
Type in all cases: in vivo
[1] = test system: humans; assay: Placebo controlled study in humans, change in total MADRS (ITT, LOCF); details: for Change from Baseline in total MADRS, Mean (SD): ITT LOCF, depression rating scale
[2] = test system: Mice; assay: Tail Suspension in Mice
[3] = test system: Mice; assay: Forced-Swim Test (FST) in Mice
[4] = test system: Rats; assay: Forced-Swim Test (FST) in Rats
[5] = test system: Mice; assay: Reserpine Reversal in Mice
[6] = test system: Mice; assay: Reversal of Isolation-Induced Aggression in Mice
[7] = test system: Mice; assay: Tetrabenazine Reversal in Mice

Structure (SMILES) | Change from Baseline in total MADRS, Mean (SD) ([1]; 20 mg) | antidepressant effects [2] | antidepressant effects [3] | antidepressant effects [4] | antidepressant effects [5] | Change from Baseline in total MADRS, Mean (SD) ([1]; 200 mg) | Change from Baseline in total MADRS, Mean (SD) ([1]; 400 mg) | decrease in depression rating scores (MADRS) compared to placebo and paroxetine ([1]; Table 1) | antidepressant effects in large placebo controlled study ([1]; compared with Paroxetine) | antidepressant effects [6] | antidepressant effects [7]
Fc1ccc([C@@H]2CCNC[C@H]2COc2ccc3c(c2)OCO3)cc1 (relative stereo) [Paroxetine, trans-(−)-3-[(1,3-benzodioxol-5-yloxy)methyl]-4-(4-fluorophenyl)piperidine, reference compound] | −14.1 (10.71) | – | – | – | – | – | – | – | – | – | –
Cl.NC(=O)OC[C@H](N)Cc1ccccc1 [Test Compound, (R)-(beta-amino-benzenepropyl) carbamate monohydrochloric acid] | – | demonstrated antidepressant effects | demonstrated antidepressant effects | demonstrated antidepressant effects | demonstrated antidepressant effects | −12.1 (11.12) | −12.4 (11.12) | greater decrease in depression rating scores (MADRS) as compared to placebo but not as great as the active control, paroxetine | significant antidepressant effects | demonstrated antidepressant effects | demonstrated antidepressant effects
